Measured values taken from the supplement of paper PMC10307832.

Experiments:
Assay in all cases: relative viability (nuclei count vs DMSO), 5 days (fraction); higher = more cells survive
Zebularine + Trametinib = compound: O=c1ncccn1[C@@H]1O[C@H](CO)[C@@H](O)[C@H]1O [Zebularine] + CC(=O)Nc1cccc(-n2c(=O)n(C3CC3)c(=O)c3c(Nc4ccc(I)cc4F)n(C)c(=O)c(C)c32)c1 [Trametinib] (partner 0.02 µM)
Summary of the method: (§1)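 Relative viability is defined as nuclei in treated wells over nuclei in vehicle wells. Duplicate plates were run and medians reported. Lung cancer cell lines in 1536-well plates were dosed by pin tool one day after seeding, with one drug or with a fixed anchor-drug dose plus five library-drug doses (not always all listed) in √10 steps, and nuclei were counted after 5 days.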

Zebularine + Pemetrexed = compound: O=c1ncccn1[C@@H]1O[C@H](CO)[C@@H](O)[C@H]1O [Zebularine] + Nc1nc2[nH]cc(CCc3ccc(C(=O)N[C@@H](CCC(=O)O)C(=O)O)cc3)c2c(=O)[nH]1 [Pemetrexed] (partner 0.2 µM)
Summary of the method: as §1

Zebularine + Foretinib = compound: O=c1ncccn1[C@@H]1O[C@H](CO)[C@@H](O)[C@H]1O [Zebularine] + COc1cc2c(Oc3ccc(NC(=O)C4(C(=O)Nc5ccc(F)cc5)CC4)cc3F)ccnc2cc1OCCCN1CCOCC1 [Foretinib] (partner 0.25 µM)
Summary of the method: as §1

BI-D1870 + Pemetrexed = compound: CC(C)CCN1c2nc(Nc3cc(F)c(O)c(F)c3)ncc2N(C)C(=O)C1C [BI-D1870] + Nc1nc2[nH]cc(CCc3ccc(C(=O)N[C@@H](CCC(=O)O)C(=O)O)cc3)c2c(=O)[nH]1 [Pemetrexed] (partner 0.2 µM)
Summary of the method: as §1

| Cell Line | relative viability (Zebularine + Trametinib; first compound 1 µM) | relative viability (Zebularine + Trametinib; first compound 3.162 µM) | relative viability (Zebularine + Trametinib; first compound 10 µM) | relative viability (Zebularine + Trametinib; first compound 31.62 µM) | relative viability (Zebularine + Trametinib; first compound 100 µM) | relative viability (Zebularine + Pemetrexed; first compound 1 µM) | relative viability (Zebularine + Pemetrexed; first compound 3.162 µM) | relative viability (Zebularine + Pemetrexed; first compound 10 µM) | relative viability (Zebularine + Pemetrexed; first compound 31.62 µM) | relative viability (Zebularine + Pemetrexed; first compound 100 µM) | relative viability (Zebularine + Foretinib; first compound 1 µM) | relative viability (Zebularine + Foretinib; first compound 3.162 µM) | relative viability (Zebularine + Foretinib; first compound 10 µM) | relative viability (Zebularine + Foretinib; first compound 31.62 µM) | relative viability (Zebularine + Foretinib; first compound 100 µM) | relative viability (BI-D1870 + Pemetrexed; first compound 0.04 µM) | relative viability (BI-D1870 + Pemetrexed; first compound 0.1265 µM) | relative viability (BI-D1870 + Pemetrexed; first compound 0.4 µM) | relative viability (BI-D1870 + Pemetrexed; first compound 1.265 µM) | relative viability (BI-D1870 + Pemetrexed; first compound 4 µM) |
| --- | --- | --- | --- | --- | --- | --- | --- | --- | --- | --- | --- | --- | --- | --- | --- | --- | --- | --- | --- | --- |
| NCI-H441 | 0.485 | 0.416 | 0.316 | 0.315 | 0.213 | 0.274 | 0.248 | 0.302 | 0.185 | 0.166 | 1.72 | 1.03 | 0.684 | 0.361 | 0.258 | 0.262 | 0.279 | 0.245 | 0.237 | 0.265 |
| LCLC-103H | 0.727 | 0.672 | 0.604 | 0.675 | 0.612 | 0.459 | 0.443 | 0.388 | 0.504 | 0.443 | 0.785 | 0.861 | 0.456 | 0.78 | 0.469 | 0.453 | 0.457 | 0.48 | 0.434 | 0.439 |
| LCLC-97TM1 | 0.223 | 0.209 | 0.128 | 0.188 | 0.174 | 0.167 | 0.172 | 0.13 | 0.146 | 0.0657 | 0.929 | 1 | 0.704 | 0.27 | 0.212 | 0.173 | 0.188 | 0.16 | 0.221 | 0.175 |
| NCI-H1355 | 0.449 | 0.45 | 0.468 | 0.383 | 0.335 | 1.04 | 1.02 | 0.802 | 0.623 | 0.303 | 1.02 | 0.907 | 0.631 | 0.47 | 0.325 | 1.04 | 0.998 | 1.03 | 1.15 | 0.963 |
| HOP-62 | 0.456 | 0.435 | 0.282 | 0.244 | 0.191 | 0.326 | 0.316 | 0.239 | 0.186 | 0.139 | 1.28 | 1.15 | 0.335 | 0.252 | 0.186 | 0.331 | 0.333 | 0.379 | 0.409 | 0.365 |
| NCI-H2085 | 0.491 | 0.547 | 0.522 | 0.433 | 0.392 | 0.913 | 0.881 | 0.753 | 0.877 | 0.495 | 0.879 | 1.06 | 0.785 | 0.833 | 0.503 | 0.924 | 0.802 | 0.887 | 0.881 | 0.603 |
| SW 900 | 0.759 | 0.789 |  | 0.899 | 1.15 | 0.534 | 0.483 |  | 0.53 | 0.41 | 1.28 | 0.633 | 0.545 | 0.762 | 0.498 | 0.44 | 0.463 | 0.471 | 0.516 | 0.434 |
